Experimental data: patent US8044053B2, “Sulfonamide substituted pyrazoline compounds, their preparation and use as CB1 modulators” (Laboratories del Dr. Esteve, S.A., priority 2006, dated 2011)
pIC50, pKi: −log10 of the molar value.

Legend:
[1] = target: CB1-receptor (UniProt P20272); assay: In-vitro determination of affinity (binding) to CB1-receptors, radioligand [3H]-CP55940; parameters: IC50; Ki; species or system human or rat; details: Pharmacological Methods Part I
Protocol: (§1) I. In-Vitro Determination of Affinity to CB1/CB2-Receptors
(§2) The in-vitro determination of the affinity of the inventive substituted pyrazoline compounds to CB1/CB2-Rezeptors is carried out as described in the publication of Ruth A. Ross, Heather C. Brockie et al., “Agonist-inverse agonist characterisation at CB1 and CB2 cannabinoid receptors of L-759633, L759656 and AM630”, British Journal of Pharmacology, 126, 665-672, (1999), whereby the transfected human CB1 and CB2 receptors of Receptor Biology, Inc. are used. The radioligand used for both receptors is [^3H]-CP55940. The respective parts of the description is hereby incorporated by reference and forms part of the present disclosure.
(§3) Rat Cerebellum CB1 Binding
(§4) Binding affinity to CB1 receptor was evaluated according to a modification of the method described by Govaerts et al., Eur J Pharmac Sci 23, 233-243 (2004). The respective parts of the description is hereby incorporated by reference and forms part of the present disclosure.
(§5) Briefly, cerebellum from male wistar rats (250-300 g) were carefully dissected on ice and homogenates were prepared with Potter-Helveheim in a cold 50 mM Tris-HCl solution containing 5 mM MgCl2, 1 mM EDTA and 0.25 M sucrose, pH 7.4. The suspension was centrifuged at 1,000×g for 5 minutes. The supernatants were collected and centrifuged 50,000×g for 15 minutes. The resulting pellets were then resuspended in Tris-HCl buffer without sucrose, homogenised and incubated for 15 min at 37° C. in an orbital shaker bath and centrifuged again at 50,000×g for 15 min. Pellets were weighted, resuspended in Tris-HCl buffer without sucrose, homogenised with Ultraturrax at 13,500 rpm for 3×5 seconds and alicuoted in 0.9 ml volumes in Eppendorf tubes. Alicuotes were centrifuged at 20,800×g for 5 minutes, supernatants discarded and pellets were frozen at −80° C. until use. Total protein concentration was determined using the Bio-Rad Lowry method based kit. Competitive binding experiments were performed in presence of 1 nM [^3H]-CP 55,940 in siliconised glass tubes containing 100 μg protein/tube resuspended in 1 ml final volume of 50 mM Tris-HCl, 5 mM MgCl2, 1 mM EDTA, 0.5% (w/v) bovine serum albumin, pH 7.4. Compounds were present at various concentrations and the non specific binding was determined in the presence of 10 μM HU-210. After 1 hour incubation at 30° C., the suspension was rapidly filtered through 0.5% PEI pre-treated GF/B fiber filters on a 96-well harvester and washed 3 times with 3 ml ice-cold binding buffer without bovine serum albumin. Radioactivity on filters was measured with Wallac Winspectral 1414 counter by liquid scintillation in 6 ml Ecoscint H (National Diagnostics, U.K.). Assays were made in triplicates.
(§6) Binding data were analysed by non-linear regression with the software GraphPad Prism Version 3.03.
(§7) The binding of the pyrazoline compounds of general formulae I, Ia and Ib to CB1-receptors was determined according to the method described in the section Pharmacological Methods, Part I.

[2] = target: CB1-receptor (UniProt P20272); assay: as above; parameters: % inh; 10^−7 M; compound at 10^−7 M; species or system human or rat; details: compound at 10^−7 M
Protocol: as §1, §2, §3, §4, §5, §6, §7

Row | pIC50 [1] | % inh. 10^−7 M [2] [%] | pKi [1] | Structure (SMILES)
1 | 8.36 | 74.0 |  | Cc1ccc(F)cc1S(=O)(=O)NCC1=NN(c2ccc(Cl)cc2Cl)C(c2ccc(Cl)cc2)C1 (stereo not shown) [Example 38, N-[5-(4-Chloro-phenyl)-1-(2,4-dichloro-phenyl)-4,5-dihydro-1H-pyrazol-3-ylmethyl]-5-fluoro-2-methyl-benzenesulfonamide]
2 | 6.85 | 26.1 |  | O=S(=O)(NCC1=NN(c2ccc(Cl)cc2Cl)C(c2ccc(Cl)cc2)C1)c1cccc(C(F)(F)F)c1 (stereo not shown) [Example 18, N-[5-(4-Chloro-phenyl)-1-(2,4-dichloro-phenyl)-4,5-dihydro-1H-pyrazol-3-ylmethyl]-3-trifluoromethyl-benzenesulfonamide]
3 | 6.41 | 27.1 |  | O=S(=O)(NCC1=NN(c2ccc(Cl)cc2Cl)C(c2ccc(Cl)cc2)C1)c1cccc(Cl)c1 (stereo not shown) [Example 1, 3-Chloro-N-[5-(4-chloro-phenyl)-1-(2,4-dichloro-phenyl)-4,5-dihydro-1H-pyrazol-3-ylmethyl]-benzenesulfonamide]
4 | 6.58 | 80.6 |  | CCCS(=O)(=O)NCC1=NN(c2ccc(Cl)cc2Cl)C(c2ccc(Cl)cc2)C1 (stereo not shown) [Example 21, Propane-1-sulfonic acid [5-(4-chloro-phenyl)-1-(2,4-dichloro-phenyl)-4,5-dihydro-1H-pyrazol-3-ylmethyl]-amide]
5 | 7.69 | 53.2 |  | Cc1cc(S(=O)(=O)NCC2=NN(c3ccc(Cl)cc3Cl)C(c3ccc(Cl)cc3)C2)c(C)cc1Cl (stereo not shown) [Example 39, 4-Chloro-N-[5-(4-chloro-phenyl)-1-(2,4-dichloro-phenyl)-4,5-dihydro-1H-pyrazol-3-ylmethyl]-2,5-dimethyl-benzenesulfonamide]
6 | 7.15 | 48.6 |  | N#Cc1cccc(S(=O)(=O)NCC2=NN(c3ccc(Cl)cc3Cl)C(c3ccc(Cl)cc3)C2)c1 (stereo not shown) [Example 10, N-((5-(4-chlorophenyl)-1-(2,4-dichlorophenyl)-4,5-dihydro-1H-pyrazol-3-yl)methyl)-3-cyanobenzenesulfonamid]
7 | 7.17 | 54.3 | 7.51 | O=S(=O)(NCC1=NN(c2ccc(Cl)cc2Cl)C(c2ccc(Cl)cc2)C1)c1ccsc1 (stereo not shown) [Example 9, Thiophene-3-sulfonic acid [5-(4-chloro-phenyl)-1-(2,4-dichloro-phenyl)-4,5-dihydro-1H-pyrazol-3-ylmethyl]-amide]
8 | 6.74 | 54.9 |  | O=S(=O)(NCC1=NN(c2ccc(Cl)cc2Cl)C(c2ccc(Cl)cc2)C1)c1ccccc1Cl (stereo not shown) [Example 23, 2-Chloro-N-[5-(4-chloro-phenyl)-1-(2,4-dichloro-phenyl)-4,5-dihydro-1H-pyrazol-3-ylmethyl]-benzenesulfonamide]
9 | 6.74 | 11.9 |  | CC1(C)C2CCC1(CS(=O)(=O)NCC1=NN(c3ccc(Cl)cc3Cl)C(c3ccc(Cl)cc3)C1)C(=O)C2 (stereo not shown) [Example 7, N-[5-(4-Chloro-phenyl)-1-(2,4-dichloro-phenyl)-4,5-dihydro-1H-pyrazol-3-ylmethyl]-C-(7,7-dimethyl-2-oxo-bicyclo[2.2.1]hept-1-yl)-methanesulfonamide]
10 | 7.82 | 54.1 | 8.14 | Cc1ccc(C)c(S(=O)(=O)NCC2=NN(c3ccc(Cl)cc3Cl)C(c3ccc(Cl)cc3)C2)c1 (stereo not shown) [Example 44, N-[5-(4-Chloro-phenyl)-1-(2,4-dichloro-phenyl)-4,5-dihydro-1H-pyrazol-3-ylmethyl]-2,5-dimethyl-benzenesulfonamide]
